Marks after values point to notes of the source that are not given here. Residues, ends and D or L forms follow the SMILES beside them.
Legend:
rats = experiment: Chronic toxicity, 6 months; assay type: in vivo; conditions: intramuscularly daily during 6 months, 1 μg/kg, 0.1 mg/kg, 1 mg/kg
Description: The animals were exposed daily to a single administration of the drug intramuscularly in doses 1 μg/kg, 0.1 mg/kg, 1 mg/kg in 0.5 ml of sodium chloride solution during 6 months. Behaviour of the animals, their rations and water consumption, the state of their hair integument and mucous membranes were registered. The animals were weighed daily during the first 3 months of the experiment and then once a month. Haematological and biochemical studies were carried out 3 months after the onset of drug administration and upon experiment completion. Functions of the cardiovascular system, liver, pancreas, kidneys, and adrenal glands were assessed. Upon the end of drug administration some animals were subjected to pathomorphological examination for the purpose of estimating the condition of various sections of the brain and spinal marrow, heart, aorta, lungs, liver, kidneys, organs of the endocrine and immune systems.

[1] = test system: Drosophila melanogaster of HEM strain; experiment: Luminol-dependent tissue chemoluminescence in flies of HEM strain; assay type: in vivo; conditions: 0.00001% of culture medium weight
Text: (§1) L-Ala-L-Glu-L-Asp-Gly tetrapeptide (SEQ ID NO: 1) was applied in Drosophila melanogaster larvae of the 2nd age of HEM strain selected for a high ageing rate (20). HEM strain is characterised by the unique dynamics of embryonic mortality, which consists in an increased frequency of early embryonic lethal outcomes from 65% on the 1st day of egg-laying up to 95% on the 4th day, in a reduced average life span (29 days), and in a raised intensity of lipid peroxide oxidation.
(§2) L-Ala-L-Glu-L-Asp-Gly tetrapeptide (SEQ ID NO: 1) was added in proportion 0.00001% of the culture medium weight, which was an extremely low dose. The doses described in literature on the influence of various substances on Drosophila melanogaster usually ranged from 0.001 to 0.01%.
Biochemical parameters were studied on 14-day old flies. Among them the activity of catalase activity and the intensity of tissue chemoluminescence were analysed (21, 22, 23). Catalase is the basic enzyme of anti-oxidation defence. […] Luminol-dependent chemoluminescence, induced by hydrogen peroxide, reflects the stage of active oxygen forms in tissues. Thus, a decrease in the chemoluminescence intensity indicates an increase in the organism ability to resist oxidative stress.

[2] = test system: Drosophila melanogaster of HEM strain; experiment: Life span and ageing rate, HEM strain; assay type: in vivo; conditions: for 90% (the age, which 90% of the individuals reach) / ALS (average life span) / MRDT (mortality-rate doubling time) / Me (median life span) / R · 10^−2 (parameter of Gomperz equation): 0.00001% of medium
Text: as §1, §2

catalase [3] = experiment: Catalase activity in homogenates of 14 days old flies of LA strain; assay type: in vivo, Drosophila melanogaster of LA strain
Description: (§3) The impact produced by L-Ala-L-Glu-L-Asp-Gly tetrapeptide (SEQ ID NO: 1) on catalase activity, the content of the products of lipid peroxide oxidation (LPO), life span, and the ageing rate were studied in Drosophila melanogaster of LA strain.
(§4) L-Ala-L-Glu-L-Asp-Gly tetrapeptide (SEQ ID NO: 1) was applied in the larvae of the 3rd age in dose 0.00001% of the culture medium weight, which constituted approximately 0.015 mg/100 ml. Catalase activity was estimated by generally accepted methods in the homogenates of adult 14 days old flies. The experiment was carried out with a subsequent repetition.
(§5) Regression and dispersal analyses served as the basic technique of statistic processing. The authenticity of differences was confirmed by the method of minimal relevant diversity.

[4] = test system: Drosophila melanogaster of LA strain; experiment: Content of lipid peroxide oxidation products (conjugated hydro-peroxides), LA strain; assay type: in vivo
Description: as §3, §4, §5

[5] = test system: Drosophila melanogaster of EA strain; experiment: Life span and ageing rate, EA strain; assay type: in vivo
Description: (§6) Drosophila melanogaster of EA strain served as a model for studying the influence of L-Ala-L-Glu-L-Asp-Gly tetrapeptide (SEQ ID NO: 1) on catalase activity, tissue chemoluminescence, and life span.
One-day old flies were placed in test tubes, 10 individuals of the same sex in each. Every 5 to 7 days they were transferred to a fresh medium, taking into account the number of deceased individuals. The average and maximal life spans were defined. The ageing rate was calculated by the parameters of Gomperz equation.
(§7) L-Ala-L-Glu-L-Asp-Gly tetrapeptide (SEQ ID NO: 1) was applied in the larvae of the 3rd age in dose 0.00001% of the culture medium weight, which constituted approximately 0.015 mg/100 ml. Catalase activity and the intensity of chemoluminescence were estimated in the homogenates of adult 7-day old flies by generally accepted methods. The experiment was conducted with a subsequent 5 repetition.
(§8) Regression and dispersal analyses served as the basic technique of statistic processing.

catalase [6] = experiment: Catalase activity in homogenates of 7-day old flies of EA strain; assay type: in vivo, Drosophila melanogaster of EA strain
Description: as §6, §7, §8

[7] = test system: Drosophila melanogaster of EA strain; experiment: Chemoluminescence intensity in homogenates of 7-day old flies of EA strain; assay type: in vivo
Description: as §6, §7, §8

Question: Which results are given for `C[C@H](N)C(=O)N[C@@H](CCC(=O)O)C(=O)N[C@@H](CC(=O)O)C(=O)NCC(=O)O` [L-Ala-L-Glu-L-Asp-Gly tetrapeptide, L-alanyl-L-glutamyl-L-aspartyl-glycine] (H-AEDG-OH)?
Answer: Pathologic alterations (general state, blood indices, intrinsic organs, cardiovascular, respiratory, liver, kidney) (rats): no pathologic alterations; Side effects, chronic toxicity (rats): absence of side effects; Chemoluminescence ([1]; females): 7.9 ± 0.91 conv. unit/mg of protein; Chemoluminescence ([1]; males): 2.03 ± 0.182 conv. unit/mg of protein; 90% (the age, which 90% of the individuals reach) ([2]; females): 76 days; ALS (average life span) ([2]; females): 48 + days; MRDT (mortality-rate doubling time) ([2]; females): 3.9; Me (median life span) ([2]; females): 48.0 days; R · 10^−2 (parameter of Gomperz equation) ([2]; females): 4.0 + days^−1; 90% (the age, which 90% of the individuals reach) ([2]; males): 62 days; ALS (average life span) ([2]; males): 42 + 1.3 days; MRDT (mortality-rate doubling time) ([2]; males): 3.8; Me (median life span) ([2]; males): 38.0 days; R · 10^−2 (parameter of Gomperz equation) ([2]; males): 4.5 + days^−1; Increase of the average life span ([2]; versus control): 26%; Reduction of the population real ageing rate (Gomperz parameter) ([2]; versus control): 40%; Specific activity of catalase (catalase [3]; females): 42.57 μmole H2O2/mg of protein per min.; Specific activity of catalase (catalase [3]; males): 57.44* μmole H2O2/mg of protein per min.; Content of conjugated hydro-peroxides ([4]; females): 1.290* nmole/g of tissue; Content of conjugated hydro-peroxides ([4]; males): 1.202 nmole/g of tissue; ALS ([5]; females, Experiment 1): 16.4 ± 1.68 days; G 10^2 ([5]; females, Experiment 1): 3.6 ± 0.61* days^−1; LSmax ([5]; females, Experiment 1): 39 days; LnR0 ([5]; females, Experiment 1): -3.1 ± 0.21 day⁻¹; ALS ([5]; females, Experiment 2): 16.7 ± 0.70 days; G 10^2 ([5]; females, Experiment 2): 4.2 ± 1.68 days^−1; LSmax ([5]; females, Experiment 2): 41 days; LnR0 (Gompertz parameter) ([5]; females, Experiment 2): -3.6 ± 0.41 day⁻¹; ALS ([5]; males, Experiment 1): 10.8 ± 1.09 days; G 10^2 ([5]; males, Experiment 1): 3.3 ± 2.25 days^−1; LSmax ([5]; males, Experiment 1): 39 days; LnR0 (Gompertz parameter) ([5]; males, Experiment 1): -2.3 ± 0.26 day⁻¹; ALS ([5]; males, Experiment 2): 17.4 ± 0.88 days; G 10^2 ([5]; males, Experiment 2): 4.7 ± 0.94* days^−1; LSmax ([5]; males, Experiment 2): 45 days; LnR0 (Gompertz parameter) ([5]; males, Experiment 2): -3.0 ± 0.28 day⁻¹; Specific activity of catalase (catalase [6]; females): 82.78 ± 2.957 μmole H2O2/mg of protein per min.; Specific activity of catalase (catalase [6]; males): 100.39 ± 3.807 μmole H2O2/mg of protein per min.; Chemoluminescence intensity ([7]; females): 4.61 ± 0.395 conv. unit/mg of protein per p; Chemoluminescence intensity ([7]; males): 4.93 ± 0.109 conv. unit/mg of protein per p

— patent US6727227B1, “Tetrapetide revealing geroprotective effect, pharmacological substance on its basis, and the method of its application” (Obschestvo S Ogranichennoi Otvetstven-Nostiju “Klinika …, priority 2002, dated 2004)
